US20180118708A1, “CYCLIC COMPOUND” (Takeda Pharmaceutical Company Limited, priority 2015, published 2018)

Key:
TLR4 = target: T1, TLR4 (Mus musculus, UniProt Q9QUK6); assay: Inhibitory effect with respect to NO production (LPS/interferon γ stimulated RAW264.7 cells); format: cell-based, murine; conditions: test compound 100 nM, LPS 1.25 ng/mL + mouse interferon γ 0.2 ng/mL, nitrite ion in culture supernatant
T1 construct: endogenous in cells; host or cells: RAW264.7 (murine macrophage cell line)
T1 sequence (Q9QUK6 26-835): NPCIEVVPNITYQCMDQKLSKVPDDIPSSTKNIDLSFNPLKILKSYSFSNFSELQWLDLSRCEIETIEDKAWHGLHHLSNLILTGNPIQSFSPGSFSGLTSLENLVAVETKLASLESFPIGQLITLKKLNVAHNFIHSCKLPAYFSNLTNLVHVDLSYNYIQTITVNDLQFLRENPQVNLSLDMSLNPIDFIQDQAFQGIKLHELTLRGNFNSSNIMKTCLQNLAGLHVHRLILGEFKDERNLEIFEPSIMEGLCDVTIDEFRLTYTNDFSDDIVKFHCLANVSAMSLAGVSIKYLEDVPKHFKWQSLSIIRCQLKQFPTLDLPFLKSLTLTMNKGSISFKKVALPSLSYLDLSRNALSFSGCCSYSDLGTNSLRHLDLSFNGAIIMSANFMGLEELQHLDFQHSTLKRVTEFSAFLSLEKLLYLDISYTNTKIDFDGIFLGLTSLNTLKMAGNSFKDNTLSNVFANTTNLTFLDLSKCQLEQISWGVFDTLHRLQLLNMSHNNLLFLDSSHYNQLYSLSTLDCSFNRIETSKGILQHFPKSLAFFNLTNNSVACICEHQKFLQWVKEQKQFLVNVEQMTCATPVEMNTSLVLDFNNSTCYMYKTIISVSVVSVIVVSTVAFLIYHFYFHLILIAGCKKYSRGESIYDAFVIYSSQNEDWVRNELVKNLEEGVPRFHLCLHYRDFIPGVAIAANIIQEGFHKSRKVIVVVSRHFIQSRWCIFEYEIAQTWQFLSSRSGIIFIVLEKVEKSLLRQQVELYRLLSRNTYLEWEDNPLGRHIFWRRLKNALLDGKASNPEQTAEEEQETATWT
T1 sequence (Q9JHF9 19-160 partner): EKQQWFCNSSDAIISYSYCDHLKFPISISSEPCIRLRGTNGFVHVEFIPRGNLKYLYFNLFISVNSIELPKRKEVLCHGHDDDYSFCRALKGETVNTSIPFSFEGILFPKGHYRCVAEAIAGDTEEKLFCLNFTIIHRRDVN
Method: Inhibitory Effect With Respect to NO Production
The inhibitory effect on TLR4 was determined using the inhibition rate due to the test compound with respect to NO production as a result of addition of lipopolysaccharide (LPS) using murine macrophage cell line RAW264.7. The cells were adjusted to 2×10^6 cells/mL using RPM1-1640 culture medium (phenol red free) supplemented with 10% inactivated bovine fetal serum, and were plated on 384 well plate so as to contain 6×10^4 cells/30 μL per well. Thereafter the cells were cultured at 37° C. overnight under 5% CO2/95% air. The test compound dissolved in DMSO was diluted 200 times using RPM1-1640 culture medium and adjusted so as to form a compound concentration of 500 nM. The prepared test compound 10 μL (final concentration 100 nM) was added to the cells, and LPS (Sigma) and mouse interferon γ (Wako Pure Chemicals) were added in amounts of 10 μL so as to form final concentrations of 1.25 ng/mL and 0.2 ng/mL respectively. The cells were further cultured overnight, and then the nitrite ion (stable NO metabolite) concentration in the culture supernatant was measured as an index of NO production. The nitrite ion concentration was assayed by adding 10 μL of 20 μg/mL 2,3-diamino naphthalene (DAN) dissolved in 0.2N HCl to 20 μL culture supernatant, incubating at room temperature for ten minutes, and then adding 10 μL of 0.5N NaOH, and measuring the fluorescent value at 460 nm (excitation wavelength 355 nm) using an EnVision plate reader (Perkin Elmer). The NO production inhibition rate (%) was calculated using the value without the addition of stimulating agent as control of 100% inhibition, and the value without the addition of the compound as control of 0% inhibition.

TNFα = assay: Effect with respect to blood TNF-α concentration elevation by LPS stimulation; format: in vivo; conditions: oral, female BALB/c mice, LPS 5 mg/kg i.p. one hour after compound, serum sampled one hour later, vs control group
Description: Effect With Respect to Blood TNF-α Concentration Elevation by LPS Stimulation
Various kinds of cytokines are produced in vivo accompanying inflammatory response and abnormal immunity or the like. Therefore, the action of test compound with respect to blood TNFa concentration rise was investigated using laboratory animals.
Female BALB/c mice (6 weeks old) were purchased, and, after preliminary rearing for about 1 week, the mice were divided into groups of four animals. […] Solvent was administered to control group in the same way. LPS (5 mg/kg) was administered intraperitoneally to the test group and the control group one hour after the administration of the test compound or solvent, and blood was sampled one hour later. The serum was separated from the obtained blood, and the TNFα concentration in the serum was measured using an assay kit made by R&D Systems Inc. The inhibition rates of the test group with respect to the control group are shown in Table 3.

SMILES	NO production inhibitory effect at 100 nM (% inhibition) (TLR4)	NO production inhibitory effect at 100 nM (% inhibition) (TLR4; 0.1 µM)	Blood TNFα inhibition rate (% inhibition) (TNFα; Dose 20 mg/kg)	Blood TNFα inhibition rate (% inhibition) (TNFα; Dose 10 mg/kg)
CCOC(=O)C1=CC2(CCC1S(=O)(=O)Cc1ccc(F)cc1Cl)O[C@H](CO)[C@@H](CO)O2 (single isomer, unassigned) [Compound 14]		100		82.8
CCOC(=O)C1=CC2(CCC1S(=O)(=O)Cc1ccc(F)cc1Cl)O[C@@H](CO)[C@H](CO)O2 (stereo partly drawn) [Compound 1, ethyl (2S,3S)-8-((2-chloro-4-fluorobenzyl)sulfonyl)-2,3-bis(hydroxymethyl)-1,4-dioxaspiro[4.5]dec-6-ene-7-carboxylate]	107		83.3	
CCOC(=O)C1=CC2(CCC1S(=O)(=O)Cc1ccc(F)cc1Cl)O[C@H](CO)[C@@H](CO)O2 (stereo partly drawn) [Compound 2, ethyl (2R,3R)-8-((2-chloro-4-fluorobenzyl)sulfonyl)-2,3-bis(hydroxymethyl)-1,4-dioxaspiro[4.5]dec-6-ene-7-carboxylate]	106		84.5	
CCOC(=O)C1=CC2(CCC1S(=O)(=O)Cc1ccc(F)cc1Cl)O[C@@H](CO)[C@H](CO)O2 (single isomer, unassigned) [Compound 7]		100		92.4
CCOC(=O)C1=CC2(CCC1S(=O)(=O)Cc1ccc(F)cc1Cl)OC[C@@H](CO)O2 (stereo partly drawn) [Compound 8, ethyl (2R)-8-((2-chloro-4-fluorobenzyl)sulfonyl)-2-(hydroxymethyl)-1,4-dioxaspiro[4.5]dec-6-ene-7-carboxylate]		100		
CCOC(=O)C1=CC2(CCC1S(=O)(=O)Cc1ccc(F)cc1Cl)O[C@H](COC(=O)CN)[C@@H](COC(=O)CN)O2 (stereo partly drawn) [Compound 16, ethyl (2R,3R)-2,3-bis((2-aminoacetoxy)methyl)-8-((2-chloro-4-fluorobenzyl)sulfonyl)-1,4-dioxaspiro[4.5]dec-6-ene-7-carboxylate]	100			

More lines, main results first:

NO production inhibitory effect at 100 nM (% inhibition) (TLR4)	NO production inhibitory effect at 100 nM (% inhibition) (TLR4; 0.1 µM)	SMILES	Blood TNFα inhibition rate (% inhibition) (TNFα; Dose 20 mg/kg)	Blood TNFα inhibition rate (% inhibition) (TNFα; Dose 10 mg/kg)
100		CCOC(=O)C1=CC2(CCC1S(=O)(=O)Cc1cccc(Cl)c1)O[C@@H](CO)[C@H](CO)O2 (stereo partly drawn) [Compound 24, ethyl (2S,3S)-8-((3-chlorobenzyl)sulfonyl)-2,3-bis(hydroxymethyl)-1,4-dioxaspiro[4.5]dec-6-ene-7-carboxylate]	91.5	
98		CCOC(=O)C1=CC2(CCC1S(=O)(=O)Cc1cccc(C)c1)O[C@@H](CO)[C@H](CO)O2 (stereo partly drawn) [Compound 25, ethyl (2S,3S)-2,3-bis(hydroxymethyl)-8-((3-methylbenzyl)sulfonyl)-1,4-dioxaspiro[4.5]dec-6-ene-7-carboxylate]	93.8	
106		CCOC(=O)C1=CC2(CC[C@H]1S(=O)(=O)Cc1cccc(Cl)c1)O[C@H](CO)[C@@H](CO)O2 [Compound 30, ethyl (2R,3R,8R)-8-((3-chlorobenzyl)sulfonyl)-2,3-bis(hydroxymethyl)-1,4-dioxaspiro[4.5]dec-6-ene-7-carboxylate]		
100		CCOC(=O)C1=CC2(CCC1S(=O)(=O)Cc1cccc(Cl)c1)O[C@H](CO)[C@@H](CO)O2 (stereo partly drawn) [Compound 3, ethyl (2R,3R)-8-((3-chlorobenzyl)sulfonyl)-2,3-bis(hydroxymethyl)-1,4-dioxaspiro[4.5]dec-6-ene-7-carboxylate]	84.9	
